IC50 data for 24 compounds are collected here from patent US8263656B2 (Hoffmann-La Roche Inc., priority 2008, dated 2012).

Usually IC50 stands for the concentration that gives 50% inhibition. Lower therefore signals greater potency in that assay.

Molecules are shown by their SMILES.

For this assay, the target named is T1, human CRTH2 (Homo sapiens, UniProt Q9Y5Y4).
T1 construct: expressed in transfected cells
T1 sequence (Q9Y5Y4 1-395): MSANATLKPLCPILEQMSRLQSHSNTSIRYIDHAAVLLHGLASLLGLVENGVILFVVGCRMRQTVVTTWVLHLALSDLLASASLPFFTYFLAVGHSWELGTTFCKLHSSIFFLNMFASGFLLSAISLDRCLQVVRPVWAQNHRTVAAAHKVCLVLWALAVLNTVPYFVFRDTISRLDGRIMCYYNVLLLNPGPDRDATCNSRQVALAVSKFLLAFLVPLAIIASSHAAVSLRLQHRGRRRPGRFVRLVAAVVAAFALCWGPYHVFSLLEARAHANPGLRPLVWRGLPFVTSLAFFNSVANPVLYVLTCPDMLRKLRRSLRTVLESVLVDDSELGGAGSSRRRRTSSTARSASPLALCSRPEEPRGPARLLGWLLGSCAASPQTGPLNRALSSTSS
The assay is described as follows: Human CRTH2 Receptor Binding Assay (whole cell, [3H]ramatroban competition). Particulars: CHO-K1 cells expressing human CRTH2 and G-alpha16; 20 nM [3H]ramatroban; 1 hour, room temperature. The text has this: A whole cell receptor binding assay using [^3H]ramatroban as the competing radioactive ligand was employed to evaluate the compound binding activity to human CRTH2. The radioactive ligand [^3H]ramatroban was synthesized according to Sugimoto et. al. (Eur. J. Pharmacol. 524, 30-37, 2005) to a specific activity of 42 Ci/mmol.
A cell line stably expressing human CRTH2 was established by transfecting CHO-K1 cells with two mammalian expression vectors that harbored human CRTH2 and G-alpha16 cDNAs, respectively, using FuGene® 6 transfection reagent (from Roche). Stable clones expressing CRTH2 were selected by staining each clone with BM16 (BD Pharmingen™ from BD Biosciences, a division of Becton, Dickinson and Company), which is a rat monoclonal antibody to human CRTH2. The cells were maintained as monolayer cultures in Ham's F-12 medium containing 10% fetal bovine serum, 100 units/mL penicillin, […] streptomycin, 2 mM glutamine, 0.5 mg/mL G418 (geneticin) for CRTH2, and 0.2 mg/mL hygromycin-B (for G-alpha 16). For whole cell receptor binding assay, the monolayer cells were rinsed once with PBS (phosphate buffered saline), dissociated using diammonium ethylenediaminetetraacetate (Versene™ EDTA from the Dow Chemical Company), and suspended in PBS containing 10 mM MgCl2 and 0.06% BSA (bovine serum albumin) at 1.5×10^6 cells/mL.
The binding reactions (0.2 mL) were performed in 96-well plates at room temperature in PBS containing 1.5×10^5 cells, 10 mM MgCl2, 0.06% BSA, 20 nM [^3H]ramatroban, and test compound at various concentrations. After 1 hour of binding reactions, the cells were harvested on GF™/B filter microplates (microtiter plates with embedded glass fiber from PerkinElmer, Inc.) and washed 5 times with PBS using a Filtermate™ Harvester (a cell harvester that harvests and washes cells from microplates from PerkinElmer, Inc.). The radioactivities bound to the cells were determined using a microplate scintillation counter (TopCount® NXT, from PerkinElmer, Inc.) after adding 50 μL of Microscint™ 20 scintillation fluid (from PerkinElmer, Inc.) to each well of the filter plates. The radioactivity from non-specific binding was determined by replacing compound with 10 μM of 15(R)-15-methyl PGD2 (from Cayman Chemical Company) in the reaction mixtures. The radioactivity bound to the cells in the absence of compound (total binding) was determined by replacing compound with 0.25% of DMSO (dimethyl sulfoxide) in the reaction mixture. Specific binding data were obtained by subtracting the radioactivity of non-specific binding from each binding data.
The IC50 value is defined as the concentration of the tested compound that is required for 50% inhibition of total specific binding. In order to calculate the IC50 value, the percent inhibition data were determined for 7 concentrations for each compound. The percent inhibition for a compound at each concentration was calculated according to the following formula, [1-(specific binding in the presence of compound)/(total specific binding)]×100. The IC50 value was then obtained by fitting the percent inhibition data to a sigmoidal dose-response (4 parameter logistic) model in the XLfit® software Excel add-in program [from ID Business Solutions Ltd., model 205, where F(x)=(A+(B−A)/(1+((C/x)^D)))].
Take `O=C(O)COc1cc(Cl)cc2c1CCC[C@H]2NS(=O)(=O)c1cc(C(F)(F)F)cc(C(F)(F)F)c1` [Example 1-8]: the IC50 was found to be 3.5 nM.

As for `CN(C1CCCc2c1cc(F)c(F)c2OCC(=O)O)S(=O)(=O)c1cc(Br)cc(C(F)(F)F)c1` (stereo not drawn) [Example 2-20, {5-[(3-Bromo-5-trifluoromethyl-benzenesulfonyl)-methyl-amino]-2,3-difluoro-5,6,7,8-tetrahydro-naphthalen-1-yloxy}-acetic acid], the IC50 was found to be 288 nM.

`CN(C1CCCc2c1cc(F)c(F)c2OCC(=O)O)S(=O)(=O)c1cc(Cl)ccc1Cl` (stereo not drawn) [Example 2-21, {5-[(2,5-Dichloro-benzenesulfonyl)-methyl-amino]-2,3-difluoro-5,6,7,8-tetrahydro-naphthalen-1-yloxy}-acetic acid] gave an IC50 of 2100 nM.

Turning to `CN(C1CCCc2c1cc(Cl)c(F)c2OCC(=O)O)S(=O)(=O)c1cc(F)cc(C(F)(F)F)c1` (stereo not drawn) [Example 2-15, {3-Chloro-2-fluoro-5-[(3-fluoro-5-trifluoromethyl-benzenesulfonyl)-methyl-amino]-5,6,7,8-tetrahydro-naphthalen-1-yloxy}-acetic acid], the IC50 was found to be 14.1 nM.

The compound `Cc1c(Cl)cc2c(c1OCC(=O)O)CCCC2NS(=O)(=O)c1cc(C(F)(F)F)cc(C(F)(F)F)c1` (stereo not drawn) [Example 1-5, [5-(3,5-Bis-trifluoromethyl-benzenesulfonyl-amino)-3-chloro-2-methyl-5,6,7,8-tetrahydro-naphthalen-1-yloxy]-acetic acid] returned an IC50 of 28.4 nM.

Compound `O=C(O)COc1c(F)c(Cl)cc2c1CCC[C@H]2NS(=O)(=O)c1cc(C(F)(F)F)cc(C(F)(F)F)c1` [Example 1-1, [(R)-5-(3,5-Bis-trifluoromethyl-benzenesulfonylamino)-3-chloro-2-fluoro-5,6,7,8-tetrahydro-naphthalen-1-yloxy]-acetic acid] registered an IC50 of 2.4 nM.

The compound `Cc1ccc2c(c1OCC(=O)O)CCCC2NS(=O)(=O)c1cc(C(F)(F)F)cc(C(F)(F)F)c1` (stereo not drawn) [Example 1-3, [5-(3,5-Bis-trifluoromethyl-benzenesulfonyl-amino)-2-methyl-5,6,7,8-tetrahydro-naphthalen-1-yloxy]-acetic acid] displayed an IC50 of 147 nM.

In turn, `O=C(O)COc1c(F)c(Cl)cc2c1CCCC2NS(=O)(=O)c1cc(Br)cc(C(F)(F)F)c1` (stereo not drawn) [Example 1-15, [5-(3-Bromo-5-trifluoromethyl-benzenesulfonyl-amino)-3-chloro-2-fluoro-5,6,7,8-tetrahydro-naphthalen-1-yloxy]-acetic acid] yielded an IC50 of 8 nM.

In the case of `O=C(O)COc1cc(F)cc2c1CCCC2NS(=O)(=O)c1cc(Cl)ccc1Cl` (stereo not drawn) [Example 1-33, [5-(2,5-Dichloro-benzenesulfonyl-amino)-3-fluoro-5,6,7,8-tetrahydro-naphthalen-1-yloxy]-acetic acid], the IC50 is 81 nM.

Turning to `CC(C)c1cccc(-c2ccc(S(=O)(=O)NC3CCCc4c(OCC(=O)O)cc(F)cc43)nc2)c1` (stereo not drawn) [Example 1-35, {3-Fluoro-5-[5-(3-isopropyl-phenyl)-pyridine-2-sulfonylamino]-5,6,7,8-tetrahydro-naphthalen-1-yloxy}-acetic acid], the IC50 came out at 7 nM.

`O=C(O)COc1cc(Br)cc2c1CCC[C@H]2NS(=O)(=O)c1cc(C(F)(F)F)cc(C(F)(F)F)c1` [Example 1-20, [(R)-5-(3,5-Bis-trifluoromethyl-benzenesulfonyl-amino)-3-bromo-5,6,7,8-tetrahydro-naphthalen-1-yloxy]-acetic acid] came in with an IC50 of 2.5 nM.

Compound `O=C(O)COc1c(F)c(F)cc2c1CCCC2NS(=O)(=O)c1ccc(Cl)cc1Cl` (stereo not drawn) [Example 1-30, [5-(2,4-Dichloro-benzenesulfonyl-amino)-2,3-difluoro-5,6,7,8-tetrahydro-naphthalen-1-yloxy]-acetic acid] returned an IC50 of 46.1 nM.

Consider `CN(C1CCCc2c1cc(Cl)c(F)c2OCC(=O)O)S(=O)(=O)c1cc(Cl)ccc1Cl` (stereo not drawn) [Example 2-9, {3-Chloro-5-[(2,5-dichloro-benzenesulfonyl)-methyl-amino]-2-fluoro-5,6,7,8-tetrahydro-naphthalen-1-yloxy}-acetic acid], for which the IC50 was 1160 nM.

Compound `O=C(O)COc1c(F)c(Cl)cc2c1CCCC2NS(=O)(=O)c1cc(F)cc(C(F)(F)F)c1` (stereo not drawn) [Example 1-21, [3-Chloro-2-fluoro-5-(3-fluoro-5-trifluoromethyl-benzenesulfonyl-amino)-5,6,7,8-tetrahydro-naphthalen-1-yloxy]-acetic acid] yielded an IC50 of 2.8 nM.

On to `CC(C)c1cccc(-c2ccc(S(=O)(=O)NC3CCCc4c3cc(F)c(F)c4OCC(=O)O)nc2)c1` (stereo not drawn) [Example 1-34, {2,3-Difluoro-5-[5-(3-isopropyl-phenyl)-pyridine-2-sulfonylamino]-5,6,7,8-tetrahydro-naphthalen-1-yloxy}-acetic acid], for which the IC50 was determined as 8.6 nM.

The compound `CN(C1CCCc2c1cc(F)c(F)c2OCC(=O)O)S(=O)(=O)c1cc(F)cc(C(F)(F)F)c1` (stereo not drawn) [Example 2-24, {2,3-Difluoro-5-[(3-fluoro-5-trifluoromethyl-benzenesulfonyl)-methyl-amino]-5,6,7,8-tetrahydro-naphthalen-1-yloxy}-acetic acid] registered an IC50 of 380 nM.

On to `O=C(O)COc1cc(Cl)cc2c1CCC[C@H]2NS(=O)(=O)c1cc(Br)cc(C(F)(F)F)c1` [Example 1-42, [(R)-5-(3-Bromo-5-trifluoromethyl-benzenesulfonyl-amino)-3-chloro-5,6,7,8-tetrahydro-naphthalen-1-yloxy]-acetic acid], for which the IC50 turned out to be 3.2 nM.

Regarding `O=C(O)COc1c(F)c(Cl)cc2c1CCCC2NS(=O)(=O)c1cc(C(F)(F)F)cc(C(F)(F)F)c1` (stereo not drawn) [Example 1-9, [5-(3,5-Bis-trifluoromethyl-benzenesulfonyl-amino)-3-chloro-2-fluoro-5,6,7,8-tetrahydro-naphthalen-1-yloxy]-acetic acid], the IC50 is 5.8 nM.

`O=C(O)COc1cc(Cl)cc2c1CCC[C@H]2NS(=O)(=O)c1cc(Cl)ccc1Cl` [Example 1-43, [(R)-3-Chloro-5-(2,5-dichloro-benzenesulfonyl-amino)-5,6,7,8-tetrahydro-naphthalen-1-yloxy]-acetic acid] displayed an IC50 of 10.9 nM.

In turn, `O=C(O)COc1cc(Cl)cc2c1CCCC2NS(=O)(=O)c1cc(Cl)ccc1Cl` (stereo not drawn) [Example 1-13, [3-Chloro-5-(2,5-dichloro-benzenesulfonyl-amino)-5,6,7,8-tetrahydro-naphthalen-1-yloxy]-acetic acid] returned an IC50 of 7.1 nM.

In turn, `O=C(O)COc1cc(Cl)cc2c1CCCC2NS(=O)(=O)c1cc(C(F)(F)F)cc(C(F)(F)F)c1` (stereo not drawn) [Example 1-6] gave an IC50 of 5.8 nM.

`O=C(O)COc1cc(Cl)cc2c1CCC[C@H]2NS(=O)(=O)c1cc(F)cc(C(F)(F)F)c1` [Example 1-41, [(R)-3-Chloro-5-(3-fluoro-5-trifluoromethyl-benzenesulfonyl-amino)-5,6,7,8-tetrahydro-naphthalen-1-yloxy]-acetic acid]: the IC50 is 3.4 nM.

Turning to `O=C(O)COc1c(F)c(Cl)cc2c1CCCC2NS(=O)(=O)c1ccc(Cl)cc1Cl` (stereo not drawn) [Example 1-14], the IC50 turned out to be 7.7 nM.

Regarding `O=C(O)COc1cc(F)cc2c1CCCC2NS(=O)(=O)c1cc(F)cc(C(F)(F)F)c1` (stereo not drawn) [Example 1-27, [3-Fluoro-5-(3-fluoro-5-trifluoromethyl-benzenesulfonyl-amino)-5,6,7,8-tetrahydro-naphthalen-1-yloxy]-acetic acid], the IC50 was 40.1 nM.
